Data taken from US12491160B2, “Formulations of a farnesoid X receptor agonist” (ELI LILLY AND COMPANY, priority 2020, dated 2025).

Key:
hFXR = target: T1, hFXR (Homo sapiens, UniProt Q96RI1); assay: In Vitro FXR Assay (TK); type: cell-based; settings: transfected CV-1 cells (hFXR, hRXR, TK-ECRE-luc), 18 hrs incubation, luminescence
T1 construct: expressed in transfected cells; host or cells: CV-1 cells
T1 sequence (Q96RI1 1-486): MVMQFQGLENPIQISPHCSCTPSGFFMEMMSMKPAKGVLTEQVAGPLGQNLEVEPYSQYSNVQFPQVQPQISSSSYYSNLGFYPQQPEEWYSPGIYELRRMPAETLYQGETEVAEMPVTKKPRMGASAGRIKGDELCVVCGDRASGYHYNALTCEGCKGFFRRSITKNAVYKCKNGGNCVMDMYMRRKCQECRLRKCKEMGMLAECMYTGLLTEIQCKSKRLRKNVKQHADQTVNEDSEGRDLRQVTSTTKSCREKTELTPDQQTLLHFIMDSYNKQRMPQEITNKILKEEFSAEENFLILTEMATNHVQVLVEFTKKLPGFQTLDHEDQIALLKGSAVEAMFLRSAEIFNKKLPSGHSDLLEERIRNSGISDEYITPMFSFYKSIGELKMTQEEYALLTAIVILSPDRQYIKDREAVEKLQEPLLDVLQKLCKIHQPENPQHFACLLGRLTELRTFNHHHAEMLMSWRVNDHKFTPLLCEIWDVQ
T1 sequence (P19793 1-462 partner): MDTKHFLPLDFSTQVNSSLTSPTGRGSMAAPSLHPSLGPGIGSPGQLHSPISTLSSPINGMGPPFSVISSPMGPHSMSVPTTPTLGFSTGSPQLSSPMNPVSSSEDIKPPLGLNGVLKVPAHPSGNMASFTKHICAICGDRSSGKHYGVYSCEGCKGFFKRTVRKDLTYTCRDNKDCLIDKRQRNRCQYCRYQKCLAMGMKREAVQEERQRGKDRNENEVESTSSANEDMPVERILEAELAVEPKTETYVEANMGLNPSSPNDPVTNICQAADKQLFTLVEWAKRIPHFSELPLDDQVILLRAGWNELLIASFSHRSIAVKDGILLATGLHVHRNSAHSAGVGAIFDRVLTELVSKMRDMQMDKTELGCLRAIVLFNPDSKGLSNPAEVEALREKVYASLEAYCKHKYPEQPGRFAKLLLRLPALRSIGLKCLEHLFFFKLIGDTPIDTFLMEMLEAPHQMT
Protocol: CV-1 cells were seeded at a density of 2,000,000 cells in a T175 flask with DMEM+10% charcoal double-stripped FBS and incubated at 37° C. in 5% CO2 for 18 h (O/N).
After 18 h of incubation, the medium in the T175 flask was changed with fresh DMEM+10% charcoal super-stripped serum. In a polypropylene tube, 2500 μL OptiMEM (Life Technologies, Cat #31985-062) was combined with expression plasmids for hFXR, hRXR, TK-ECRE-luc and pCMX-YFP. The tube was then briefly vortexed and incubated at room temperature for 5 minutes. Transfection reagent (X-tremeGENE HP from Roche, Cat #06 366 236 001) was added to the OptiMEM/plasmid mixture vortexed and incubated at room temperature for 20 minutes. Following incubation, the transfection reagent/DNA mixture complex was added to cells in the T175 flask and the cells were incubated at 37° C. in 5% CO2 for 18 h (O/N).
Compound 1 was serially diluted in DMSO and added to transfected CV-1 cells. The cells were then incubated for 18 hrs. The next day cells were lysed and examined for luminescence. Compound 1 TK hFXR: EC50≤0.01 μM.

FXR = target: T2, FXR (Homo sapiens, UniProt Q96RI1); settings: published clinical studies, higher administered doses; cited from earlier work
T2 sequence (Q96RI1 1-486): T1 sequence (Q96RI1 1-486)

| EC50 (hFXR) [nM] | Structure (SMILES) | adverse side effects (FXR) |
| --- | --- | --- |
| ≤ 10 | COc1ccc(C23CCC(CN(c4cc(-c5cnn(C(C)(C)C)c5)ccn4)C(=O)[C@H]4CC[C@H](OC(=O)N5CC(O)C5)CC4)(CC2)CC3)cc1C [Compound 1, 4-((4-(1-(tert-butyl)-1H-pyrazol-4-yl)pyridin-2-yl)((4-(4-methoxy-3-methylphenyl)bicyclo[2.2.2]octan-1-yl)methyl)carbamoyl)cyclohexyl 3-hydroxyazetidine-trans-1-carboxylate] | – |
| – | CC[C@H]1[C@@H](O)[C@@H]2[C@H](CC[C@]3(C)[C@@H]([C@H](C)CCC(=O)O)CC[C@@H]23)[C@@]2(C)CC[C@@H](O)C[C@@H]12 [OCA, Obeticholic acid] | adverse side effects at higher administered doses, such as pruritis, increased LDL cholesterol and liver toxicity |
